Experimental data taken from article PMC10759609, “A novel PDPN antagonist peptide CY12-RP2 inhibits melanoma growth via Wnt/β-catenin and modulates the immune cells” (Journal of Experimental & Clinical Cancer Research : CR, 2024).
Peptide text beside a SMILES is read from it.

Legend:
[1] = In vivo biodistribution (His-ELISA); set-up: species or system BALB/c nude mice; details: His-CY12-RP2, 25 and 100 mg/kg, tail vein
Experimental: In vivo biodistribution assay was conducted in BALB/c nude mice with melanoma tumor. Here we prepared 15 female BALB/c mice with subcutaneous melanoma tumor, and divided into three groups with each group of five. Mice were treated with His-CY12-RP2 by tail vein administration at various doses (25 mg/kg and 100 mg/kg). We collected at least 50 μL orbital blood samples by using capillary blood vessels at 6 h, 12 h, 24 h, 36 h, and 48 h, respectively. Five mice were used for the study of in vivo biodistribution of peptide. The organs including heart, liver, spleen, lung and kidney were collected after BALB/c nude mice were sacrificed at 48 h. The biodistribution of CY12-RP2 in blood and organs were measured using an ELISA kit (Shenzhen Ziker Biological Technology, Shenzhen, China) following the kit’s instructions.
Fig. S4: The inhibition of cells metastasis and invasion by CY12-RP2 can be […]
(A, B) The inhibition of CY12-RP2 on the migration capacity of melanoma cell lines was reversed by SKL2001 (A). Statistical analysis was performed to determine the migrated distance (B). The power field scale bar, 100 μm. (C, D) Effect of CY12-RP2 on the invasive ability of melanoma cell lines were reversed by SKL2001 (C).
Statistical analysis was performed to count the invaded cells (D). The power field scale bar, 100 μm. (E) Western blot assay was also performed to detect the proteins related to EMT and Wnt/β-catenin signaling pathway, including N-cadherin, Vimentin, snail, Dvl2, Phospho-β-catenin-S675, β-catenin, Phospho-GSK3β-Ser9 and GSK3β by CY12-RP2 with or without SKL2001 (50 μM). Data are presented as mean ± SD. *p < […]
(A) TUNEL analysis of apoptosis was conducted on orthotopic xenografts tumor sections using fluorescence staining. […] (B) Fluorescence staining of Ki67 was carried out on orthotopic xenograft tumor sections.
The power field scale bar, 100 μm. (C) Serum His-CY12-RP2 levels of the orthotopic xenografts mice treated by various dosage of CY12-RP2 were measured by His-ELISA kit. […]
kit. (E) Serum ALT, AST, TG, and γ-GT levels of the orthotopic xenografts model were measured by ELISA. […]

[2] = test system: immune cells in spleen and lung; assay: Flow cytometry of immune cells, spleen and lung, lung metastasis model; assay type: in vivo, BALB/c mice; details: lungs and spleens
Experimental: (§1) In this study, cell apoptosis was analyzed by flow cytometry using a PI/FITC-Annexin V Apoptosis Detection Kit (4A Biotech, Beijing, China). Briefly, melanoma cells were collected and washed with pre-chilled PBS, then resuspended with Annexin V staining buffer. Afterward, fluorescein isothiocyanate (FITC)-Annexin V and PI were stained for 5 min at RT, and then immediately detected using a Beckman flow cytometer. To investigate immune cell infiltration of the lung and spleen in the pulmonary metastasis mouse model, the surface and nuclear antigen staining were performed following the experimental procedure. Fluorescence-labeled mAb against CD3, CD25, CD49b, GranzymeB, CD11b, CD86, and CD206 were purchased from BioLegend (BioLegend, San Diego, CA), and CD4, CD8, and Foxp3 from Tonbo. Surface markers, including CD3, CD4, CD8, CD25, CD49b, GranzymeB, CD11b, CD86 and CD206, were firstly stained, then fixed, permeabilized, and stained for the intranuclear marker Foxp3, respectively. Finally, the samples were measured using flow cytometry.
For pulmonary metastasis assays, 6- to 8-week-old female BALB/c mice were administered with 5 × 10^5 B16F10-Luc cells via tail vein to establish an experimental pulmonary metastasis model of melanoma. CY12-RP2 was administered to the mice intravenously at high and low doses (25 mg/kg and 100 mg/kg) every two days, and the mice were sacrificed after 15 days of treatment. Pulmonary metastases were evaluated using bioluminescence imaging on the 2nd, 5th, 10th, 15th and 20th day after B16F10-Luc cells injection. Subsequently, the BALB/c mice were sacrificed, and the organs including the heart, liver, spleen, lung, and kidney were collected and imaged for evaluation of micrometastases. The xenografts and organs were kept in a 4% paraformaldehyde solution for subsequent histological assays.

[3] = test system: EMT and apoptosis signaling in A375 cells; assay: Western blot, EMT and apoptosis proteins, A375; assay type: cell-based; details: 0, 5, 25 μM, 48 h
Experimental: Melanoma cells were cultured in a 60 mm dish with a complete medium and various peptide concentrations (0 μM, 5 μM, 25 μM). Protein was extracted after cells were cultured or treated for 48 h using protein lysis buffer, separated using a 10% or 15% Bis–Tris PAGE gel (Epizyme Biomedical Technology, Shanghai, China), and transferred onto a PVDF membrane (Thermo Fisher Scientific) according to standard techniques. The Western blots were imaged using Bio-rad Chemidoc MP and quantified using ImageJ software (NIH).

A375 cells = assay: Annexin V/PI flow cytometry apoptosis, A375; assay type: cell-based; details: 0, 50, 100, 200 μM, 48 h
Experimental: as §1, with “Surface markers, including CD3, CD4, CD8, CD25, CD49b, GranzymeB, CD11b, CD86 and CD206, were firstly stained, then fixed, permeabilized, and stained for the intranuclear marker Foxp3, respectively.” left out
Fig. 3 Biopanning of PDPN antagonist peptides. […] B Immunofluorescence staining was performed to quantify the colocalization of CY12-RP2 and PDPN protein in melanoma cell lines (A375, A875). […] D Suppression efficiency of melanoma cells growth by CY12-RP2 was measured by CCK8 assay at various concentrations for 24, 48 or 72 h, respectively. […] G, H The 3D cellular spheres were treated with the set concentrations of CY12-RP2 for 5 days and cell morphology was assessed (G), relative spheroid diameter was measured (H). […]

CC(C)C[C@H](NC(=O)[C@H](Cc1ccc(O)cc1)NC(=O)[C@@H](N)[C@@H](C)O)C(=O)N[C@@H](CS)C(=O)N[C@H](C(=O)N[C@@H](C)C(=O)N[C@@H](CS)C(=O)N[C@@H](CC(=O)O)C(=O)N[C@@H](Cc1ccc(O)cc1)C(=O)N[C@H](C(=O)N[C@@H](Cc1c[nH]cn1)C(=O)N[C@@H](Cc1c[nH]cn1)C(=O)O)[C@@H](C)O)[C@@H](C)O [CY12-RP2] (H-TYLCTACDYTHH-OH; N-terminus and C-terminus assumed)
serum level after peak ([1]; serum, 6-48 h): moderately decreased progressively with time
time of peak serum level ([1]; serum, sampled 6, 12, 24, 36, 48 h): 6 h
organ distribution ([1]; tumor vs heart, liver, spleen, lung, kidney at 48 h): significant ability to target tumors compared to other organs
CD3 + CD4 + T cells ratio to total T cells [2]: significantly increased
CD3 + CD8 + T cells ratio to total T cells [2]: significantly increased
CD4 + CD25 + Foxp3 + Treg cells [2]: significantly diminished
CD11b + CD86 + M1-like macrophages proportion [2]: significantly increased
CD11b + CD206 + M2-like macrophages proportion [2]: decreased
CD49b + Granzyme B + NK cells proportion [2]: significantly increased
expression of E-cadherin, Caspase-9, Caspase-3, and Bax [3]: significantly increased
expression of N-cadherin, vimentin, snail, and BCL2 [3]: decreased
apoptosis rate (A375 cells): significantly up-regulated by CY12-RP2 in a dose-dependent manner
